Experimental data as given in ChEMBL document CHEMBL1145783, “Development of an orexin-2 receptor selective agonist, [Ala(11), D-Leu(15)]orexin-B” (Bioorg Med Chem Lett, 2003).
Residues, ends and D or L forms follow the SMILES beside them. *: point of attachment. X1 = C[C@H](NC(=O)N1CCC[C@H]1C(=O)NCC(=O)N[C@@H](CO)C(=O)N[C@@H](CCCN=C(N)N)C(N)=O)C(=O)NC(=O)CN*

molecular target: T1, Orexin receptor type 2 (Homo sapiens, UniProt O43614); assay: Agonist activity against human orexin 2 receptor; EC50; nM; assay type: functional
T1 sequence (O43614 whole entry): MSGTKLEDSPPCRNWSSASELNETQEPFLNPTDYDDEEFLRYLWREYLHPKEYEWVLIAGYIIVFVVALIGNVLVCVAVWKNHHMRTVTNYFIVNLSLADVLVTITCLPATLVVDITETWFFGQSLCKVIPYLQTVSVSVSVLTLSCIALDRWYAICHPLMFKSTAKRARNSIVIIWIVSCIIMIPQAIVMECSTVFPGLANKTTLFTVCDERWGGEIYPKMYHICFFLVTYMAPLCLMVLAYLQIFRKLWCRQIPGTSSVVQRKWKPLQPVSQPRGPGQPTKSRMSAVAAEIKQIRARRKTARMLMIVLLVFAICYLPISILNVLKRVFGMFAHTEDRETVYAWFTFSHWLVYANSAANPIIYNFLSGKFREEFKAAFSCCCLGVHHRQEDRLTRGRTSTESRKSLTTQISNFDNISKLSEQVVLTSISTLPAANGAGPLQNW

Molecule | EC50 [nM]
H-MTLIGGAHNGSAQLLRQLRGQLGPPGSR-NH2 | 0.84
CC[C@H](C)[C@H](NC(=O)[C@H](CC(C)C)NC(=O)[C@@H](NC(=O)[C@@H](N)CCSC)[C@@H](C)O)C(=O)N[C@H](C)C(=O)N[C@@H](C)C(=O)N[C@@H](C)C(=O)N[C@@H](Cc1cnc[nH]1)C(=O)N[C@@H](CC(N)=O)C(=O)NCC(=O)N[C@@H](CO)C(=O)N[C@@H](C)C(=O)N[C@@H](CCC(N)=O)C(=O)N[C@@H](CC(C)C)C(=O)N[C@@H](CC(C)C)C(=O)N[C@@H](CCCN=C(N)N)C(=O)N[C@@H](CCC(N)=O)C(=O)N[C@@H](CC(C)C)C(=O)N[C@@H](CCCN=C(N)N)C(=O)NCC(=O)N[C@@H](CCC(N)=O)C(=O)N[C@@H](CC(C)C)C(=O)NCC(=O)N1CCC[C@H]1C(=O)N1CCC[C@H]1C(=O)NCC(=O)N[C@@H](CO)C(=O)N[C@@H](CCCN=C(N)N)C(N)=O | 67
CC[C@H](C)[C@H](NC(=O)[C@H](CC(C)C)NC(=O)[C@@H](NC(=O)[C@@H](N)CCSC)[C@@H](C)O)C(=O)NCC(=O)N[C@@H](C)C(=O)N[C@@H](C)C(=O)N[C@H](Cc1cnc[nH]1)C(=O)N[C@@H](CC(N)=O)C(=O)NCC(=O)N[C@@H](CO)C(=O)N[C@@H](C)C(=O)N[C@@H](CCC(N)=O)C(=O)N[C@@H](CC(C)C)C(=O)N[C@@H](CC(C)C)C(=O)N[C@@H](CCCN=C(N)N)C(=O)N[C@@H](CCC(N)=O)C(=O)N[C@@H](CC(C)C)C(=O)N[C@@H](CCCN=C(N)N)C(=O)NCC(=O)N[C@@H](CCC(N)=O)C(=O)N[C@@H](CC(C)C)C(=O)NCC(=O)N1CCC[C@H]1C(=O)N1CCC[C@H]1C(=O)NCC(=O)N[C@@H](CO)C(=O)N[C@@H](CCCN=C(N)N)C(N)=O | 1
H-MTLIGAAHNGSAQLLRQSRGQLGPPGSR-NH2 | 1.2
CC[C@H](C)[C@@H](NC(=O)[C@H](CC(C)C)NC(=O)[C@@H](NC(=O)[C@@H](N)CCSC)[C@@H](C)O)C(=O)NCC(=O)N[C@@H](C)C(=O)N[C@@H](C)C(=O)N[C@@H](Cc1c[nH]cn1)C(=O)N[C@@H](CC(N)=O)C(=O)NCC(=O)N[C@@H](CO)C(=O)N[C@@H](C)C(=O)N[C@@H](CCC(N)=O)C(=O)N[C@@H](CC(C)C)C(=O)N[C@@H](CC(C)C)C(=O)N[C@@H](CCCN=C(N)N)C(=O)N[C@@H](CCC(N)=O)C(=O)N[C@@H](CC(C)C)C(=O)N[C@@H](CCCN=C(N)N)C(=O)NCC(=O)N[C@@H](CCC(N)=O)C(=O)N[C@@H](CC(C)C)C(=O)NCC(=O)N1CCC[C@H]1C(=O)N1CCC[C@H]1C(=O)NCC(=O)N[C@@H](CO)C(=O)N[C@@H](CCCN=C(N)N)C(N)=O | > 1400
H-MTAIGAAHNGSAQLLRQLRGQLGPPGSR-NH2 | 140
H-MALIGAAHNGSAQLLRQLRGQLGPPGSR-NH2 | 9.7
CC[C@H](C)[C@H](NC(=O)[C@H](CC(C)C)NC(=O)[C@@H](NC(=O)[C@@H](N)CCSC)[C@@H](C)O)C(=O)NCC(=O)N[C@@H](C)C(=O)N[C@@H](C)C(=O)N[C@@H](Cc1c[nH]cn1)C(=O)N[C@@H](CC(N)=O)C(=O)NCC(=O)N[C@@H](CO)C(=O)N[C@@H](C)C(=O)N[C@@H](CCC(N)=O)C(=O)N[C@@H](CC(C)C)C(=O)N[C@@H](CC(C)C)C(=O)N[C@@H](CCCN=C(N)N)C(=O)N[C@@H](CCC(N)=O)C(=O)N[C@@H](CC(C)C)C(=O)N[C@H](CCCN=C(N)N)C(=O)NCC(=O)N[C@@H](CCC(N)=O)C(=O)N[C@@H](CC(C)C)C(=O)NCC(=O)N1CCC[C@H]1C(=O)N1CCC[C@H]1C(=O)NCC(=O)N[C@@H](CO)C(=O)N[C@@H](CCCN=C(N)N)C(N)=O | 0.87
CC[C@H](C)[C@H](NC(=O)[C@H](CC(C)C)NC(=O)[C@@H](NC(=O)[C@@H](N)CCSC)[C@@H](C)O)C(=O)NCC(=O)N[C@H](C)C(=O)N[C@@H](C)C(=O)N[C@@H](Cc1c[nH]cn1)C(=O)N[C@@H](CC(N)=O)C(=O)NCC(=O)N[C@@H](CO)C(=O)N[C@@H](C)C(=O)N[C@@H](CCC(N)=O)C(=O)N[C@@H](CC(C)C)C(=O)N[C@@H](CC(C)C)C(=O)N[C@@H](CCCN=C(N)N)C(=O)N[C@@H](CCC(N)=O)C(=O)N[C@@H](CC(C)C)C(=O)N[C@@H](CCCN=C(N)N)C(=O)NCC(=O)N[C@@H](CCC(N)=O)C(=O)N[C@@H](CC(C)C)C(=O)NCC(=O)N1CCC[C@H]1C(=O)N1CCC[C@H]1C(=O)NCC(=O)N[C@@H](CO)C(=O)N[C@@H](CCCN=C(N)N)C(N)=O | 14

Stronger by EC50, values ahead:

EC50 [nM] | Molecule
0.19 | CC[C@H](C)[C@H](NC(=O)[C@H](CC(C)C)NC(=O)[C@@H](NC(=O)[C@@H](N)CCSC)[C@@H](C)O)C(=O)NCC(=O)N[C@@H](C)C(=O)N[C@@H](C)C(=O)N[C@@H](Cc1c[nH]cn1)C(=O)N[C@@H](CC(N)=O)C(=O)NCC(=O)N[C@@H](CO)C(=O)N[C@@H](C)C(=O)N[C@@H](CCC(N)=O)C(=O)N[C@@H](CC(C)C)C(=O)N[C@@H](CC(C)C)C(=O)N[C@@H](CCCN=C(N)N)C(=O)N[C@@H](CCC(N)=O)C(=O)N[C@@H](CC(C)C)C(=O)N[C@@H](CCCN=C(N)N)C(=O)NCC(=O)N[C@@H](CCC(N)=O)C(=O)N[C@@H](CC(C)C)C(=O)NCC(=O)N1CCC[C@H]1C(=O)N1CCC[C@H]1C(=O)NCC(=O)N[C@@H](CO)C(=O)N[C@H](CCCN=C(N)N)C(N)=O
0.72 | H-MTLIGAAANGSAQLLRQLRGQLGPPGSR-NH2
0.23 | H-MTLIGAAHNGSAQLLRQLRGQLGPAGSR-NH2
0.32 | CC[C@H](C)[C@H](NC(=O)[C@H](CC(C)C)NC(=O)[C@@H](NC(=O)[C@@H](N)CCSC)[C@@H](C)O)C(=O)NCC(=O)N[C@@H](C)C(=O)N[C@@H](C)C(=O)N[C@@H](Cc1cnc[nH]1)C(=O)N[C@@H](CC(N)=O)C(=O)NCC(=O)N[C@@H](CO)C(=O)N[C@@H](C)C(=O)N[C@@H](CCC(N)=O)C(=O)N[C@@H](CC(C)C)C(=O)N[C@@H](CC(C)C)C(=O)N[C@@H](CCCN=C(N)N)C(=O)N[C@@H](CCC(N)=O)C(=O)N[C@@H](CC(C)C)C(=O)N[C@@H](CCCN=C(N)N)C(=O)NCC(=O)N[C@H](CCC(N)=O)C(=O)N[C@@H](CC(C)C)C(=O)NCC(=O)N1CCC[C@H]1C(=O)N1CCC[C@H]1C(=O)NCC(=O)N[C@@H](CO)C(=O)N[C@@H](CCCN=C(N)N)C(N)=O
0.29 | CC[C@H](C)[C@H](NC(=O)[C@H](CC(C)C)NC(=O)[C@@H](NC(=O)[C@@H](N)CCSC)[C@@H](C)O)C(=O)NCC(=O)N[C@@H](C)C(=O)N[C@@H](C)C(=O)N[C@@H](Cc1c[nH]cn1)C(=O)N[C@@H](CC(N)=O)C(=O)NCC(=O)N[C@@H](CO)C(=O)N[C@@H](C)C(=O)N[C@@H](CCC(N)=O)C(=O)N[C@@H](CC(C)C)C(=O)N[C@@H](CC(C)C)C(=O)N[C@@H](CCCN=C(N)N)C(=O)N[C@@H](CCC(N)=O)C(=O)N[C@@H](CC(C)C)C(=O)N[C@@H](CCCN=C(N)N)C(=O)NCC(=O)N[C@@H](CCC(N)=O)C(=O)N[C@@H](CC(C)C)C(=O)NCC(=O)NC(=O)[C@H](C)NC(=O)N1CCC[C@H]1C(=O)NCC(=O)N[C@@H](CO)C(=O)N[C@@H](CCCN=C(N)N)C(N)=O (H-MTLIGAAHNGSAQLLRQLRGQL-X1)
0.16 | CC[C@H](C)[C@H](NC(=O)[C@H](CC(C)C)NC(=O)[C@@H](NC(=O)[C@@H](N)CCSC)[C@@H](C)O)C(=O)NCC(=O)N[C@@H](C)C(=O)N[C@@H](C)C(=O)N[C@@H](Cc1cnc[nH]1)C(=O)N[C@@H](CC(N)=O)C(=O)NCC(=O)N[C@@H](CO)C(=O)N[C@@H](C)C(=O)N[C@@H](CCC(N)=O)C(=O)N[C@@H](CC(C)C)C(=O)N[C@@H](CC(C)C)C(=O)N[C@@H](CCCN=C(N)N)C(=O)N[C@@H](CCC(N)=O)C(=O)N[C@@H](CC(C)C)C(=O)N[C@@H](CCCN=C(N)N)C(=O)NCC(=O)N[C@@H](CCC(N)=O)C(=O)N[C@@H](CC(C)C)C(=O)NCC(=O)N1CCC[C@H]1C(=O)N1CCC[C@H]1C(=O)N[C@H](C)C(=O)N[C@@H](CO)C(=O)N[C@@H](CCCN=C(N)N)C(N)=O
0.46 | CC[C@H](C)[C@H](NC(=O)[C@H](CC(C)C)NC(=O)[C@@H](NC(=O)[C@@H](N)CCSC)[C@@H](C)O)C(=O)NCC(=O)N[C@@H](C)C(=O)N[C@@H](C)C(=O)N[C@@H](Cc1c[nH]cn1)C(=O)N[C@@H](CC(N)=O)C(=O)NCC(=O)N[C@H](CO)C(=O)N[C@@H](C)C(=O)N[C@@H](CCC(N)=O)C(=O)N[C@@H](CC(C)C)C(=O)N[C@@H](CC(C)C)C(=O)N[C@@H](CCCN=C(N)N)C(=O)N[C@@H](CCC(N)=O)C(=O)N[C@@H](CC(C)C)C(=O)N[C@@H](CCCN=C(N)N)C(=O)NCC(=O)N[C@@H](CCC(N)=O)C(=O)N[C@@H](CC(C)C)C(=O)NCC(=O)N1CCC[C@H]1C(=O)N1CCC[C@H]1C(=O)NCC(=O)N[C@@H](CO)C(=O)N[C@@H](CCCN=C(N)N)C(N)=O
0.091 | H-MTLIGAAHNGSGQLLRQLRGQLGPPGSR-NH2
0.15 | H-MTLIGAAHNGSAQLLRQWRGQLGPPGSR-NH2
0.065 | H-MTLIGAAHNGSAQLARQLRGQLGPPGSR-NH2
0.084 | CC[C@H](C)[C@H](NC(=O)[C@H](CC(C)C)NC(=O)[C@@H](NC(=O)[C@@H](N)CCSC)[C@@H](C)O)C(=O)NCC(=O)N[C@@H](C)C(=O)N[C@@H](C)C(=O)N[C@@H](Cc1c[nH]cn1)C(=O)N[C@@H](CC(N)=O)C(=O)NCC(=O)N[C@@H](CO)C(=O)N[C@@H](C)C(=O)N[C@@H](CCC(N)=O)C(=O)N[C@@H](CC(C)C)C(=O)N[C@@H](CC(C)C)C(=O)N[C@@H](CCCN=C(N)N)C(=O)N[C@@H](CCC(N)=O)C(=O)N[C@@H](CC(C)C)C(=O)N[C@@H](CCCN=C(N)N)C(=O)NCC(=O)N[C@@H](CCC(N)=O)C(=O)N[C@H](CC(C)C)C(=O)NCC(=O)N1CCC[C@H]1C(=O)N1CCC[C@H]1C(=O)NCC(=O)N[C@@H](CO)C(=O)N[C@@H](CCCN=C(N)N)C(N)=O
0.27 | H-MTLIGAGHNGSAQLLRQLRGQLGPPGSR-NH2
0.22 | H-MTLIGAAHNGSAQLLRQLRGQLGPPGAR-NH2
